Laboratory results published in patent US20080039453A1, “Enantiomerically pure R-etifoxine, pharmaceutical compositions thereof and methods of their use” (priority 2006, published 2008).

How the values were obtained:
[1] = test system: human GABAA receptor subunits (α1β1-3γ2L GABAA receptors); test: Modulation of GABA-evoked currents in Xenopus oocytes (2-electrode clamp), GABA subunit selectivity; assay type: cell-based; conditions: for GABA subunit selectivity: modulation of GABA EC10-evoked currents in Xenopus oocytes expressing α1β1-3γ2L, FIGS. 4A and 4B
Protocol: GABA subunit selectivity of etifoxine enantiomers was measured based on their ability to modulate the GABA-evoked currents in Xenopus oocytes.
Receptor mRNA preparation: cDNA clones encoding human GABAA receptor subunits were obtained from commercial sources. mRNA was prepared using conventional techniques with commercially-available “mMessage machine” kits (Ambion). Individual mRNAs (˜1 μg/μL) were stored in aliquots at −80° C.
mRNA injections into Xenopus oocytes: Preparation and micro-injection of oocytes were performed as reported in detail previously (see, Whittemore et al., 1996, Mol Pharmacol 50: 1364-1375). Individual oocytes were injected with 5-50 ng of mRNA at 5:1:1 (GABA). For example, individual oocytes were injected with a 5:1:1 mixture of α1, β1-3, and γ2L (˜5-50 ng of each subunit per cell) to produce expression of α1β1-3γ2L GABAA receptors. Following injections, oocytes were maintained at 16-17° C. in Barth's medium containing (in mM): NaCl, 88; KCl, 1; CaCl2, 0.41; Ca(NO3)2, 0.33; MgSO4, 0.82; NaHCO3, 2.4; HEPES 5; pH=7.4, with 0.1 mg/ml gentamycin sulfate.
Oocyte Electrophysiological recordings: Individual oocytes were placed on a nylon mesh in a 35 mm dish, perfused with frog Ringer (see, Whittemore et al., supra), and voltage clamped at a holding potential of −70 mV. In some cases, simple voltage steps were made to test voltage-dependence. Oocytes were perfused with fresh Ringer or exposed to GABA ±modulators using a custom-made gravity-driven perfusion system consisting of a linear array of 3 capillary tubes. The concentration of GABA used to evoke control currents was adjusted for each individual oocyte to be 10% of the maximal current (EC10) measured in that cell. The concentration of GABA required to evoke EC10 ‘control’ currents varied between ˜2 and 12 μM. […] Data are expressed as % of control currents (% modulation=100*[(modulated current/GABA control current)−1].

[2] = test system: mouse formalin pain model; test: Mouse formalin pain model (late phase licking); assay type: in vivo; conditions: male NSA mice, 60 mg/kg i.p., 30 minutes prior to formalin; FIG. 5
Protocol: The analgesic effect of test compounds was assessed in a mouse formalin pain model (Hole et al., 1993, Pain 53:247-254). Male NSA mice weighing between 27 and 30 g were housed with access to food and water ad libitum until the test date. On the day of testing, they were given a period of 1 h to adjust to the test chamber. Test compounds or vehicle control (75% polyethylene glycol in 5% dextrose+water) were administered i.p. at 30 minutes prior to the administration of formalin. A solution of 20 μl of 2.5% formalin was then injected subcutaneously into the dorsal side of the hind paw of the test mouse. Immediately following formalin injection, the mice were observed over the next 50 min and the time spent licking the injected hind paw was recorded. The observation time was broken down into 5 minute “bins”, with 10 bins in total. The first 5-min bin is the early phase, considered to be reflective of acute pain. Bins three to ten make up the late phase, considered a measure of chronic inflammatory pain. The results for the late phase are expressed as the averaged mean time (in seconds) that mice spent licking in a 5-min period.
Dose-response relationship was conducted in the range of 3 to 60 mg/kg. Statistical differences in response were determined by one-way analysis of variance with the Dunnett's post-hoc test by using the Prism3 statistical software (GraphPad, Inc., San Diego, Calif.).

Compound | GABA subunit selectivity [1] | analgesic effect in the formalin test (late phase licking) [2] | selectivity for β2 subunit versus β1 subunit ([1]; modulation of GABA EC10-evoked currents in Xenopus oocytes, FIG. 4B)
CCNC1=Nc2ccc(Cl)cc2C(C)(c2ccccc2)O1 (single isomer, unassigned) [R-etifoxine, 6-chloro-2-(ethylamino)-4-methyl-4-phenyl-4H-3,1-benzoxazine] | little or no GABA subunit selectivity | active | –
CCNC1=Nc2ccc(Cl)cc2C(C)(c2ccccc2)O1 (single isomer, unassigned) [S-etifoxine, 6-chloro-2-(ethylamino)-4-methyl-4-phenyl-4H-3,1-benzoxazine] | shows selectivity for GABA receptor comprising β subunit | – | more selective for β2 subunit than β1 subunit
